In PMC3314985 (Neuromuscular Disorders, 2012):
Like-named read-outs stand apart in the source and are kept apart here.

Legend:
[1] = tested on: skeletal muscle sodium channels (native Nav1.4); experiment: Tonic and use-dependent block of sodium currents; assay type: cell-based, Rana Esculenta; settings: for eudismic ratio [IC50 distomer/IC50 eutomer]: 10 Hz use-dependent block
hNav1.4 = settings: heterologously expressed; cited from earlier work
hNav1.7 = settings: heterologously expressed; cited from earlier work
pain threshold = settings: rat, oxaliplatin-induced neuropathic pain; cited from earlier work
[2] = tested on: skeletal muscle sodium channels (native Nav1.4); settings: use-dependent block at 10 Hz frequency; cited from earlier work
human serum albumin = settings: cited from earlier work

Cc1cccc(C)c1NC(=O)C1CCN(Cc2ccccc2)C1 (racemic) [To10, 1-benzyl-N-(2,6-dimethylphenyl)pyrrolidine-3-carboxamide]
eudismic ratio [IC50 distomer/IC50 eutomer] [1]: 1.3 | use-dependent block of hNav1.4 (hNav1.4): potent use-dependent blocker | use-dependent block of hNav1.7 (hNav1.7): potent use-dependent blocker | reverting the reduction of the pain threshold (pain threshold): more potent than tocainide

Cc1cccc(C)c1NC(=O)C1CCCN1Cc1ccccc1 (racemic) [To11, 1-benzyl-N-(2,6-dimethylphenyl)pyrrolidine-2-carboxamide]
eudismic ratio [IC50 distomer/IC50 eutomer] [1]: greater than 3

Cc1cccc(C)c1NC(=O)C1CCCN1 (stereo not drawn) [To5, N-(2,6-dimethylphenyl)pyrrolidine-2-carboxamide]
eudismic ratio [IC50 distomer/IC50 eutomer] [2]: > 3

O=C(Nc1ccccc1)C1CCN(Cc2ccccc2)C1 (stereo not drawn) [To13, 1-benzyl-N-phenylpyrrolidine-3-carboxamide]
fold less potent than To10 during use-dependent blockade [1]: 4–5 fold

O=C(Nc1ccc(Cl)cc1)C1CCN(Cc2ccccc2)C1 (stereo not drawn) [To14, 1-benzyl-N-(4-chlorophenyl)pyrrolidine-3-carboxamide]
fold less potent than To10 during use-dependent blockade [1]: 4–5 fold

Cc1cc(C)c(C)c(NC(=O)C2CCN(Cc3ccccc3)C2)c1C (stereo not drawn) [To15, 1-benzyl-N-(2,3,5,6-tetramethylphenyl)pyrrolidine-3-carboxamide]
binding activity to human serum albumin (human serum albumin): high binding activity

Cc1cccc(C)c1NC(=O)C1CN(Cc2ccccc2)CCN1 (stereo not drawn) [To32, 4-benzyl-N-(2,6-dimethylphenyl)piperazine-2-carboxamide]
ratio IC50TB/IC50 UDB ([1]; tonic block vs use-dependent block): around 12

Cc1cccc(C)c1NC(=O)C1CCCCN1Cc1ccccc1 (stereo not drawn) [To35, 1-benzyl-N-(2,6-dimethylphenyl)piperidine-2-carboxamide]
fold less potent than To31 in tonic block ([1]; tonic block): 4 fold | fold less potent than To31 in use-dependent block ([1]; use-dependent block): 8 fold
